Data set [1] is described as follows: Thermodynamic solubility measurement. The format is physicochemical. The settings on record: potassium phosphate buffer, pH 7.4, aqueous buffer, thermodynamic from solid.
The next data set deals with PD1/PDL1 interaction (Homo sapiens, UniProt Q15116). As to the kind of experiment: PD1 ImmunoBlocking ELISA. In kind it is biochemical.
Another data set addresses PD1 (Homo sapiens, UniProt Q15116). As to the kind of experiment: UV/Vis-colorimetric PDL1-competitive binding kinetics assay.
The nature of data set [2]: Far-UV CD spectroscopy, thermal denaturation. In kind it is physicochemical. As to conditions: calculated at 293K from best-fitted melting curves of thermal denaturation recorded by CD; phosphate buffer 15 mM, pH 6.5; RC = random coil.

The source of these data is publication PMC10029098 (Chembiochem : a European journal of chemical biology, 2022).

“And” between values parts separate entries of the source, which are not always exact repeats. Equal values may be shown once. Ends that are not written are not given here.

PD1/PDL1 interaction, sequence (Q15116 25-167 limits assumed): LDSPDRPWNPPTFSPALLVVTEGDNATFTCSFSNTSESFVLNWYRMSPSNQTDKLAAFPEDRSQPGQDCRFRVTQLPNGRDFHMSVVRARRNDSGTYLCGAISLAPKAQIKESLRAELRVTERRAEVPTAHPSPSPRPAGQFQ
PD1, sequence (Q15116 25-167 limits assumed): as above

Broadly, the solubility (thermodynamic) is the concentration in solution at equilibrium with solid. The term EC50 denotes the concentration at which the effect is half-maximal. The low end stands for an effect from little substance, the high end for a need for much substance. For the sequence RWCARRDYRFDMGFDYWGWE [1c], in data set [1], the thermodynamic solubility turned out to be 300 ± 100 µM. On PD1/PDL1 interaction, the EC50 turned out to be 3700 ± 1020 nM.

What is called Ki is the equilibrium dissociation constant of an inhibitor or competing ligand from its target. Regarding RWVARRDYRFDMGFDYWVWE [1e], the solubility (thermodynamic) in data set [1] came to 900 ± 100 µM. On PD1/PDL1 interaction, the EC50 is < 600 nM and 290 nM. This sequence returned a Ki on PD1 of 41 nM.

For the sequence RWVARRDYRGDMGFDYWVWE [1d], the thermodynamic solubility in data set [1] turned out to be 3400 ± 100 µM.

Regarding RWVWGGGGKKGGGGWVWE [2a], the “%-Fold, hairpin folded fraction (χF)” value in data set [2] is 87 ± 1%. In data set [1], this sequence yielded a thermodynamic solubility of 5800 ± 200 µM.

On to RWVWRRDYRFDMGFDYWVWE [2c], for which the “%-Fold, hairpin folded fraction (χF)” value in data set [2] is recorded as 54 ± 1%.

As for RWVWRRDYRGDMGFDYWVWE [2b], in data set [2], the “%-Fold, hairpin folded fraction (χF)” value is reported as 81 ± 1%. The sequence also showed a thermodynamic solubility in data set [1] of 600 ± 100 µM.
